US8097592B2, “Cocrystal of C-glycoside derivative and L-proline” (Astellas Pharma Inc., priority 2006, dated 2012)

How the values were obtained:
[1] = Storage stability test (X-ray powder diffraction at various humidities and storage conditions); format: physicochemical
Protocol: (2) Humidity-Controlled Measurement “MAC Science […] 22 with a multifunctional humidity and temperature converter ([…] 235)” equipped with a copper X-ray tube was used under the conditions of a current of 350 mA, a tube voltage of 50 kV, a sampling width of 0.020°, a scanning rate of 3°/min, wavelength of 1.54056 Å, and measurement angles of diffraction range of (2θ): 5 to 40°. [Storage Stability Test] The measurement of X-ray powder diffraction was conducted continuously at 25° C. in a relative humidity range of 2 to 88%.

[2] = Moisture absorptivity test (weight change, VTI SGS-100); format: physicochemical; conditions: for moisture absorption behaviour: interval 5%
Protocol: [Moisture Absorptivity Test] Weight change was measured by using of “VTI SGS-100” under the conditions of temperature=25° C., relative humidity range=5 to 95%, and relative humidity interval=5%. […] Further, while known compound A gives moisture absorption curves slightly different from each other depending upon the particle size and crystal habit, there was a case that 3.2% of water was desorbed and absorbed at 25° C. at 5 to 95% RH.

KK-A^y mice = assay: Test for confirming effect of antihyperglycemic action (blood sugar AUC 0 to 8 hours); format: in vivo; conditions: non-fasted male KK-A^y mice, oral, 1 mg/10 mL suspension at 10 mL/kg
Protocol: (Test 2): [Test for Confirming Effect of Antihyperglycemic Action] Non-fasted KK-A^y mice (Clea Japan, Inc., male) were used as a test animal. The cocrystal of the present invention was suspended in an aqueous 0.5% methyl cellulose solution, in a concentration of 1 mg/10 mL. The body weight of each mouse was measured, and the suspension of the cocrystal of the present invention was forcibly administered orally in an amount of 10 mL/kg. Only the aqueous 0.5% methyl cellulose solution was administered to a control group. The number of mice per each group was 6. Blood samples were taken from the tail vein of each mouse right before administration and 1, 2, 4 and 8 hours after administration. Blood sugar value was measured using Glucose CII Test Wako (Wako Pure Chemical Industries, ltd.). From the blood sugar values of the cocrystal of the present invention-administered group at 0 to 8 hours were calculated an area under blood sugar value-time curve (AUC) according to the trapezoidal method; a ratio (%) of that area to the area of control group was determined; and it was taken as intensity of […] action.

[3] = molecular target: Human Na^+-Glucose Cotransporter (Human SGLT2) (Homo sapiens, UniProt P31639); assay: cell-based
Protocol: (Test 1) [Test for Confirming Effect of Inhibiting Activity of Human Na^+-Glucose Cotransporter (Human SGLT2)]
3) Measurement of Inhibition of methyl-α-D-glucopyranoside Intake
After removing the medium of a CHO cell which stably express the human SGLT2, a pretreatment buffer solution (buffer solution of pH 7.4 containing choline chloride (140 mM), potassium chloride (2 mM), calcium chloride (1 mM), magnesium chloride (1 mM), 2-[4-(2-hydroxyethyl)-1-piperazinyl]ethanesulfonic acid (10 mM), and tris(hydroxymethyl)aminomethane (5 mM)) was added in the amount of 100 μl per well, and incubated at 37° C. for 20 minutes.
11 μl of methyl-α-D-(U-14C) glucopyranoside
(manufactured by Amersham Pharmacia Biotech) was added to and mixed with 1,000 μl of a buffer solution for intake containing a cocrystal of the present invention (buffer solution of pH 7.4 containing sodium chloride (140 mM), potassium chloride (2 mM), calcium chloride (1 mM), magnesium chloride (1 mM), methyl-α-D-glucopyranoside (50 μM), 2-[4-(2-hydroxyethyl)-1-piperazinyl]ethanesulfonic acid (10 mM), and tris(hydroxymethyl)aminomethane (5 mM)) to prepare a buffer solution for intake. A buffer solution for intake without a test crystal was prepared for a control group. […]

[4] = 25° C., relative humidity range 5 to 95%

Human Na^+-Glucose Cotransporter (Human SGLT2), sequence (P31639 whole entry): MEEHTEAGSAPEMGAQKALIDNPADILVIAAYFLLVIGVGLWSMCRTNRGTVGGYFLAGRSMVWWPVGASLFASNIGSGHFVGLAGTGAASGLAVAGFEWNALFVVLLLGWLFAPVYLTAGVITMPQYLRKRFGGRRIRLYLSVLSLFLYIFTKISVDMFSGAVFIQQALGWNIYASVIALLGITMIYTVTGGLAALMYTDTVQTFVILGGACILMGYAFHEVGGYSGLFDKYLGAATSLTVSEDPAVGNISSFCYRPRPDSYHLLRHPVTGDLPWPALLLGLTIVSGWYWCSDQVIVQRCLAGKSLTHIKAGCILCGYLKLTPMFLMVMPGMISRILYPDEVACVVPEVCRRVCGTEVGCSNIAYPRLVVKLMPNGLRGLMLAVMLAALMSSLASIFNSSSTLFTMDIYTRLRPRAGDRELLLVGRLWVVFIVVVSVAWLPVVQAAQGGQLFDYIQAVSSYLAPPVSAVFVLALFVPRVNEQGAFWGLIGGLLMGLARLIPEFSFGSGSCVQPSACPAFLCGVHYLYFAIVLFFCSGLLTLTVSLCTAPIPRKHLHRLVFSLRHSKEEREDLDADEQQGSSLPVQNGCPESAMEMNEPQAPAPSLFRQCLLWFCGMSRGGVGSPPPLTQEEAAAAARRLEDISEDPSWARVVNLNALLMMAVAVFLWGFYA

## OC[C@H]1O[C@@H](c2ccc(F)c(Cc3cc4ccccc4s3)c2)[C@H](O)[C@@H](O)[C@@H]1O [cocrystal of the present invention, cocrystal of (1S)-1,5-anhydro-1-[3-(1-benzothien-2-ylmethyl)-4-fluorophenyl]-D-glucitol and L-proline]
[1]; 40° C./75% RH/open
  physical stability on standing: physically stable for at least two months
[1]; 60° C./uncontrolled humidity
  physical stability on standing: physically stable for at least two months
[1]; 80° C./uncontrolled humidity
  physical stability on standing: physically stable for at least two months
[1]; up to 7 days at room temperature (25° C.) at 63.5% RH to 84% RH
  physical change on standing: no physical change
[2]; [4]
  physical stability in the moisture absorptivity test: stable physically
  moisture absorption behaviour: no moisture absorptivity
[2]; 25° C., total relative humidity range of 5 to 95%
  moisture content: ≤ 0.7%
KK-A^y mice
  intensity of antihyperglycemic action (ratio of blood sugar AUC to control group): strong antihypoglycemic action
[3]
  IC50: 5.8 nM

## OC[C@H]1O[C@@H](c2ccc(F)c(Cc3cc4ccccc4s3)c2)[C@H](O)[C@@H](O)[C@@H]1O [known compound A, (1S)-1,5-anhydro-1-[3-(1-benzothien-2-ylmethyl)-4-fluorophenyl]-D-glucitol, reference compound]
[1]; 25° C., relative humidity range of 2 to 88%, continuous measurement
  X-ray powder diffraction change associated with the change of relative humidity: shift of diffraction angle
[1]; crystals from various crystallization conditions, room temperature and low humidity
  physical stability of crystals of free form: physically unstable crystals
[2]; 25° C. at 5 to 95% RH
  water desorbed and absorbed: 3.2%
[2]; 25° C., from relative humidity of 25 to 35%
  weight change: sharp increase in weight
[2]; [4]
  moisture absorption behaviour: non-stoichiometric moisture absorption accompanied by physical change at low humidity
